Test results reported in patent US4481191A, “Method for controlling blood pressure” (The Regents of the University of California, priority 1983, dated 1984).

What was measured:
[1] = tested on: rats; conditions: administered intravenously (i.v.); Wei et al., Life Sciences; cited from earlier work
[2] = tested on: visceral afferent receptors; experiment: Sensitivity to morphine sulfate-induced bradycardia after subcutaneous pretreatment (FIG. 1); assay type: in vivo, rat; conditions: rats; for effect of prior administration on sensitivity to morphine sulfate bradycardia (ED50 of morphine sulfate for greater than 10% fall in heart rate): subcutaneously 30 minutes before testing with morphine sulfate
Text: Turning to FIG. 1, the ordinate thereof represents the ED50 of morphine sulfate for producing a greater than 10% fall in heart rate in rats, and serves as an index of the sensitivity of the animal to the drug. Morphine sulfate functions as a "challenge" drug for producing bradycardia, and is a traditional standard for comparison. Lower ED50 values mean that the visceral afferent receptors are more sensitive. The abscissa of FIG. 1 represents doses of dynorphin(1-13) and Leu-enkephalin, respectively, in units of micromoles per kg body weight administered subcutaneously 30 minutes before testing with morphine sulfate.
The experiments for which the data is illustrated by FIGS. 1 and 2 were conducted on male Sprague-Dawley rats weighing 250-350 g. Animals were kept under a 12-hour light-dark cycle with food and water available ad libitum. Each rat was used only once. Procedures of infusion of chemicals into the brain and for measurement of heart rate were as reported by Wei, et al., Life Science, supra, and Wei, J. Pharmacol. Exp. Ther. 21b: 12-18 (1981).
The median effective dose of drugs (ED50) for producing bradycardia was determined in animals anesthetized with 2.5% urethane solution in saline, administered 1.25 g/kg i.p. Drugs, dissolved in distilled water, were injected intravenously into a cannulated femoral vein in a volume of 0.05 ml/100 gm body weight delivered over a period of less than 3 seconds. The pH of the solutions ranged from 5.8 to 6.8 units. The blood pressure was obtained from the left cannulated carotid artery. A Narcobiosystems type 7302 cardiotachometer couple was used to integrate heart rate from the individual oscillations in blood pressure due to the heart beat, and heart rate was recorded on a polygraph recorder. The baseline heart rate (HR1) was defined as the lowest rate observed in the two minutes before drug administration. The magnitude of the change in heart rate was calculated as [(HR2 -HR1)/HR1 ]×100%, with the second heart rate (HR2) measured as the lowest rate observed in the three minutes after drug injection. […]

[3] = tested on: mice; conditions: studies with mice; cited from earlier work
[4] = synthetic product; cited from earlier work
[5] = tested on: mouse vas deferens; conditions: cited from earlier work
[6] = tested on: guinea pig ileum; conditions: cited from earlier work

Substance | median effective dose (ED50) for lowering of heart rate and blood pressure [1] [µmol/kg] | effect of prior administration on sensitivity to morphine sulfate bradycardia (ED50 of morphine sulfate for greater than 10% fall in heart rate) [2] | other results
beta-endorphin: endogenous opioid peptide | 0.07 |  | 
Leu-enkephalin | 1.5 | enhances sensitivity | 
methionine-enkephalin | 1.3 |  | 
dynorphin(1-13) |  | enhances sensitivity | analgesia [3]: relatively weak in producing analgesia; activity in enhancing sensitivity relative to Leu-enkephalin ([2]; subcutaneously 30 minutes before morphine sulfate): about 5 times; potency in bioassays versus the naturally occurring peptide [4]: as potent in bioassays as the naturally occuring peptide
Dynorphin |  |  | agonist properties [5]: potent agonist properties; agonist properties [6]: potent agonist properties
